Among the test systems are LXFL 529 NSCLC; LOX IMVI melanoma; SNB-78 CNS; SK-MEL-5 melanoma; CCRF-CEM leukemia; EKVX NSCLC; OVCAR-8 ovarian; K-562 leukemia; HCC-2998 colon; BT-549 breast; T-47D breast.
Common to all, as to assay: DTP human tumour cell line panel, 48 h

A word on the TGI: it is the concentration at which net growth stops. A high value points to lower sensitivity of the cells. By GI50 is commonly meant the concentration at which growth is held to half of that of the control.

Values joined by “and” are separate entries in the source; they are usually repeats but may differ in a detail not shown here. Equal entries are not always repeated.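 Cells were grown in 96-well plates and exposed to each compound for 48 hours at five concentrations; endpoints were interpolated linearly between bracketing concentrations, or set to the highest concentration if not reached. At the GI50, growth is halved. TGI denotes the concentration required for complete inhibition of growth.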 A value given as a limit tells only on which side of the number the result lay.

With `CN1CCCCC(C(O)(c2ccccc2)c2ccccc2)C1=O` (configuration not stated), the TGI in the test on LXFL 529 NSCLC, in the test on LOX IMVI melanoma, with SNB-78 CNS, with SK-MEL-5 melanoma, in the test on CCRF-CEM leukemia and in the test on EKVX NSCLC was more than 100 µM throughout. Besides, the concentration for total growth inhibition (TGI) in the test with OVCAR-8 ovarian, with K-562 leukemia and in the test with HCC-2998 colon was more than 100 µM each time.

As to `COc1ccc(C2=CN3CCC[C@H]3C=C2c2cc(O)c(OC)c(OC)c2)cc1OC`, the TGI is 0.078 µM and 0.376 µM in the test on LXFL 529 NSCLC; 0.00717 µM with LOX IMVI melanoma; 0.331 µM in the test with BT-549 breast; 0.0391 µM in the test on SNB-78 CNS; 0.015 µM with SK-MEL-5 melanoma; 0.235 µM in the test with CCRF-CEM leukemia. Also, the concentration for total growth inhibition (TGI) in the test with EKVX NSCLC was 0.228 µM and 1.82 µM; in the test on T-47D breast, 0.0938 µM; in the test on OVCAR-8 ovarian it was 0.0518 µM and 0.0108 µM; with K-562 leukemia, 0.244 µM and 0.173 µM; in the test with HCC-2998 colon it was 0.0412 µM and 0.0431 µM.

In the case of `COC(=O)c1cccc(C(=O)OC)c1`, the concentration for total growth inhibition (TGI) in the test on LXFL 529 NSCLC, in the test with LOX IMVI melanoma, with SNB-78 CNS, in the test on CCRF-CEM leukemia and in the test on HCC-2998 colon was more than 100 µM throughout.

On to `Nc1nc(SCCC/C=C/I)nc2c1ncn2C1OC(CO)C(O)C1O` (configuration not stated), for which the TGI in the test with LOX IMVI melanoma, in the test on SNB-78 CNS, in the test on SK-MEL-5 melanoma, with CCRF-CEM leukemia, in the test with OVCAR-8 ovarian and in the test with K-562 leukemia was more than 202 µM each time.

Take `CC(=N\N=C\c1ccccn1)/C(C)=N/N=C(C)/C(C)=N/N=C(C)/C(C)=N/N=C/c1ccccn1`: the TGI in the test on LOX IMVI melanoma, in the test with BT-549 breast, with SK-MEL-5 melanoma, in the test on CCRF-CEM leukemia, in the test on EKVX NSCLC and in the test with T-47D breast was more than 100 µM each time. Besides, the TGI in the test with OVCAR-8 ovarian, in the test on K-562 leukemia and in the test on HCC-2998 colon was more than 100 µM each time.

Consider `O=C(O)C1SCCS1`, for which the concentration for total growth inhibition (TGI) in the test on LOX IMVI melanoma, in the test with BT-549 breast, in the test on SK-MEL-5 melanoma, with CCRF-CEM leukemia, with EKVX NSCLC and with T-47D breast was more than 100 µM in each case. Moreover, the total growth inhibition concentration (TGI) in the test with OVCAR-8 ovarian, in the test with K-562 leukemia and in the test on HCC-2998 colon was more than 100 µM throughout.

Turning to `O=C(NN1C(=O)C=CC1=O)c1ccccc1Nc1ccccc1C(=O)NN1C(=O)C=CC1=O`, the total growth inhibition concentration (TGI) in the test on LOX IMVI melanoma, in the test with BT-549 breast, with SK-MEL-5 melanoma, in the test on CCRF-CEM leukemia, in the test on EKVX NSCLC and in the test with T-47D breast was more than 100 µM throughout. The TGI with OVCAR-8 ovarian, with K-562 leukemia and in the test with HCC-2998 colon was more than 100 µM in each case.

In the case of `NCCCCNC1(c2cc3ccccc3s2)CCCCC1`, the TGI in the test with LOX IMVI melanoma was found to be 4.03 µM; in the test on BT-549 breast, 25.4 µM; with SK-MEL-5 melanoma, 3.63 µM; in the test on CCRF-CEM leukemia, 5.44 µM; in the test on EKVX NSCLC, 29.1 µM; in the test with T-47D breast it was 5.23 µM. The figures for the TGI in the test on OVCAR-8 ovarian, with K-562 leukemia and with HCC-2998 colon were 20.9 µM, 3.56 µM and 3.1 µM, respectively.

Take `C/C(N=Nc1nc2ccccc2o1)=C1/C=CC=CN1O`: the TGI was more than 100 µM in the test on LOX IMVI melanoma; more than 100 µM in the test with BT-549 breast; more than 100 µM with SK-MEL-5 melanoma; more than 100 µM with CCRF-CEM leukemia; 24.3 µM in the test on EKVX NSCLC; more than 100 µM with T-47D breast. Moreover, the concentration for total growth inhibition (TGI) with OVCAR-8 ovarian was more than 100 µM; with K-562 leukemia it was more than 100 µM; with HCC-2998 colon, 24.5 µM.

As to `O=c1[nH]c2ccccc2c2oc(-c3ccccc3)nc12`, the TGI is 50.6 µM in the test with LOX IMVI melanoma; more than 100 µM in the test with BT-549 breast; more than 100 µM in the test with SK-MEL-5 melanoma; 52.6 µM in the test on CCRF-CEM leukemia; more than 100 µM with EKVX NSCLC; more than 100 µM with T-47D breast. Also, the TGI in the test with OVCAR-8 ovarian is 59.1 µM; in the test with K-562 leukemia it was more than 100 µM; with HCC-2998 colon it was more than 100 µM.

For `COc1ccc(C2(C3c4cc(OC)c(OC)cc4CCN3C)SCCCS2)cc1O` (configuration not stated), the total growth inhibition concentration (TGI) with LOX IMVI melanoma, with BT-549 breast, with SK-MEL-5 melanoma, in the test on CCRF-CEM leukemia, in the test with EKVX NSCLC and in the test on T-47D breast was more than 100 µM each time. The TGI with OVCAR-8 ovarian, with K-562 leukemia and in the test with HCC-2998 colon was more than 100 µM each time.

For `CS(=O)(=O)O.[Ag]`, the concentration for total growth inhibition (TGI) in the test on LOX IMVI melanoma stood at 73.9 µM; in the test on BT-549 breast, 38 µM; with SK-MEL-5 melanoma, 18.3 µM; in the test with CCRF-CEM leukemia, 6.64 µM; with EKVX NSCLC, 38.4 µM; with T-47D breast, 5.5 µM. For the same compound, the TGI was more than 100 µM in the test on OVCAR-8 ovarian, 4.96 µM in the test on K-562 leukemia and 28.8 µM in the test with HCC-2998 colon.

For `CC(=O)Nc1ccc(-c2nnc(SCC(=O)Nc3ccccc3C)o2)cc1`, the TGI in the test with LXFL 529 NSCLC, in the test on LOX IMVI melanoma, in the test with SNB-78 CNS, in the test with SK-MEL-5 melanoma, in the test with CCRF-CEM leukemia and in the test with OVCAR-8 ovarian was more than 100 µM in each case. This compound also showed a concentration for total growth inhibition (TGI) with K-562 leukemia of more than 100 µM.

Turning to `CC(C)CCC[C@@H](C)[C@H]1CCC2C3=CCC4C(=O)C=CC(=O)C4C3CC[C@@]21C` (some centres not stated), the concentration for 50% growth inhibition (GI50) in the test with LOX IMVI melanoma is 0.227 µM; in the test on BT-549 breast it was 0.306 µM; in the test on SK-MEL-5 melanoma it was 0.419 µM; in the test with CCRF-CEM leukemia, 0.179 µM; in the test with EKVX NSCLC, 0.279 µM; with T-47D breast, 0.174 µM. For the same compound, the concentration for 50% growth inhibition (GI50) with OVCAR-8 ovarian is 0.0726 µM; with K-562 leukemia, 0.139 µM; in the test with HCC-2998 colon, 0.274 µM. Moreover, the concentration for total growth inhibition (TGI) in the test on LOX IMVI melanoma is 1.17 µM; with BT-549 breast, 1.72 µM; in the test with SK-MEL-5 melanoma, 2.66 µM; with CCRF-CEM leukemia it was more than 100 µM; with K-562 leukemia, more than 100 µM; with HCC-2998 colon it was 0.855 µM.

Take `CN(c1ccccc1Cl)S(=O)(=O)c1ccccc1[N+](=O)[O-]`: the total growth inhibition concentration (TGI) is more than 100 µM with LOX IMVI melanoma; more than 100 µM in the test on BT-549 breast; 28.9 µM in the test on SK-MEL-5 melanoma; more than 100 µM in the test on CCRF-CEM leukemia; more than 100 µM in the test on EKVX NSCLC; more than 100 µM in the test on T-47D breast. Besides, the TGI with OVCAR-8 ovarian, in the test on K-562 leukemia and in the test on HCC-2998 colon was more than 100 µM each time.

Regarding `Clc1ncnc2c1ncn2CCCCCCCCCCCCn1cnc2c(Cl)ncnc21`, the TGI with LXFL 529 NSCLC was 17.5 µM; in the test on LOX IMVI melanoma, 7.19 µM; in the test on SNB-78 CNS, 11.2 µM; in the test with SK-MEL-5 melanoma it was 17.5 µM; in the test with CCRF-CEM leukemia, more than 100 µM; with EKVX NSCLC it was 33 µM. For the same compound, the TGI with OVCAR-8 ovarian amounted to 23.8 µM; in the test on K-562 leukemia it was 17.4 µM; in the test with HCC-2998 colon, 19.5 µM.

Consider `O=C(OCc1ccccc1)N1c2cc([N+](=O)[O-])ccc2C(=O)N2CCC[C@H]2C1O` (some centres not stated), for which the total growth inhibition concentration (TGI) in the test with LOX IMVI melanoma, in the test on BT-549 breast, with SK-MEL-5 melanoma, in the test with CCRF-CEM leukemia, with EKVX NSCLC and in the test on T-47D breast was more than 100 µM throughout. In addition, the concentration for total growth inhibition (TGI) with OVCAR-8 ovarian, with K-562 leukemia and in the test on HCC-2998 colon was more than 100 µM in each case.

Regarding `Nc1nc2cc(CNc3ccc(C(=O)NC(CCC(=O)O)C(=O)O)cc3)ccc2nc1-c1ccccc1` (configuration not stated), the TGI with LOX IMVI melanoma, in the test on BT-549 breast, with SK-MEL-5 melanoma, in the test on CCRF-CEM leukemia, in the test on EKVX NSCLC and with T-47D breast was more than 10 µM in each case. The total growth inhibition concentration (TGI) in the test with OVCAR-8 ovarian, in the test with K-562 leukemia and with HCC-2998 colon was more than 10 µM throughout.

In the case of `Cc1c(F)c(N)c2c(=O)cc(-c3ccc(NC(=O)C(N)CCCN=C(N)N)c(F)c3)oc2c1F` (configuration not stated), the TGI is more than 100 µM in the test on LOX IMVI melanoma; 51.5 µM in the test on BT-549 breast; 76.8 µM in the test on SK-MEL-5 melanoma; more than 100 µM in the test on CCRF-CEM leukemia; more than 100 µM in the test on EKVX NSCLC; more than 100 µM in the test with T-47D breast. In addition, the TGI in the test on OVCAR-8 ovarian was more than 82.8 µM; with K-562 leukemia it was more than 100 µM; in the test on HCC-2998 colon it was more than 100 µM.

As to `CC(=O)NC1=C(NCc2ccc(Cl)cc2)C(=O)c2ccccc2C1=O`, the TGI in the test with LXFL 529 NSCLC was 13 µM; with LOX IMVI melanoma, 20.9 µM; in the test on SNB-78 CNS, 24.1 µM; in the test with SK-MEL-5 melanoma, 11.4 µM; in the test with CCRF-CEM leukemia, 32.3 µM; in the test on EKVX NSCLC, 31.4 µM. Further, the results for the total growth inhibition concentration (TGI) in the test with OVCAR-8 ovarian, with K-562 leukemia and in the test with HCC-2998 colon were 14.1 µM, 16.7 µM and more than 50 µM, respectively.

Take `COc1nc2[nH]ccc2c(=O)n1C`: the TGI in the test on LXFL 529 NSCLC, in the test with LOX IMVI melanoma, in the test with SNB-78 CNS, in the test with SK-MEL-5 melanoma, in the test with CCRF-CEM leukemia and with EKVX NSCLC was more than 100 µM in each case. Moreover, the TGI in the test on OVCAR-8 ovarian and with K-562 leukemia was more than 100 µM in each case.

Values taken from PubChem BioAssay (NCI).
